Activity calls are given as the source filed them.
Legend:
Type in all cases: functional
[1] = viability of PTEN-deleted HCT116 cells – cell-based, HCT116 PTEN knockout, dose response (AID 1047);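 also: HCT116 colon tumor cells with PTEN knocked out; cells exposed to compound for 60 hours before readout; potency for loss of cell viability measured by luminescence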
[2] = target: T1, Sphingosine 1-phosphate receptor 4 (Homo sapiens, UniProt O95977); experiment: Fluorescence dose response cell-based high throughput screening assay for antagonists of the Sphingosine 1-Phosphate Receptor 4 (S1P4). [Related pubchem assays: 1524 (Confirmation in triplicates.), 1510 (Primary screen.)]
[3] = target: Sphingosine 1-phosphate receptor 1 (Homo sapiens, UniProt P21453);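 also: Tango beta-arrestin reporter U2OS cells stimulated with S1P near its EC80; inhibitor potency meaning antagonism of receptor activation by the natural agonist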
[4] = target: T1, Sphingosine 1-phosphate receptor 4; experiment: Late stage fluorescence dose response cell-based screening assay for antagonists of the Sphingosine 1-Phosphate Receptor 4 (S1P4). [Related pubchem assays: 1524 (Confirmation screen (S1P4 antagonists).), 1510 (Primary screen (S1P4 antagonists).), 1853 (Summary AID (S1P4 antagonists).), 1692 (Dose response screen (S1P4 antagonists).)]
[5] = viability of HCT116 lacking mutant beta-catenin – cell-based, human colon tumor, dose response (AID 1045);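 also: HCT116 colon tumor cells with beta catenin knocked out; cells exposed to compound for 60 hours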
Ion channel NompC = Ion channel NompC (Danio rerio, UniProt Q7T1G6); experiment: Fluorescence counterscreen assay for TRPML3 agonists: dose response cell-based high-throughput screening assay to identify agonists of the transient receptor potential channel N1 (TRPN1). [Related pubchem assays: 1526, 1424, 1448 ]
Mucolipin-3 = Mucolipin-3 (Homo sapiens, UniProt Q8TDD5); experiment: Dose response cell-based high-throughput screening assay for agonists of the transient receptor potential channel ML3 (TRPML3). [Related pubchem assays: 1526, 1424, 1448 ]
Chain of Mucolipin-3 (Q8TDD5 whole entry): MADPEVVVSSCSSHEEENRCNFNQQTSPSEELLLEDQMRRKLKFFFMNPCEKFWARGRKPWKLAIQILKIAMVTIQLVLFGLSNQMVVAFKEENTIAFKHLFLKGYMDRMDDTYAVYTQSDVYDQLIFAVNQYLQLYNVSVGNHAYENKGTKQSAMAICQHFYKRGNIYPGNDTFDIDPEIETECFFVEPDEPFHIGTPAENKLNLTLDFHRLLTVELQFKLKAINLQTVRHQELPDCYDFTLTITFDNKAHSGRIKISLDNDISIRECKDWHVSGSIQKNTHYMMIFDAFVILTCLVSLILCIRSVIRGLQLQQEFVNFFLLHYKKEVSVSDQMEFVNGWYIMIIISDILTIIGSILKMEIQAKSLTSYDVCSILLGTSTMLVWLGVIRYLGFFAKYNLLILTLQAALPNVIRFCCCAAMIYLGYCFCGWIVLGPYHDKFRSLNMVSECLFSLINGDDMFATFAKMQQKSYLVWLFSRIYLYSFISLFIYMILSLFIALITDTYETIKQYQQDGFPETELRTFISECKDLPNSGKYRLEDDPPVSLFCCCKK

T1 sequence (O95977 whole entry): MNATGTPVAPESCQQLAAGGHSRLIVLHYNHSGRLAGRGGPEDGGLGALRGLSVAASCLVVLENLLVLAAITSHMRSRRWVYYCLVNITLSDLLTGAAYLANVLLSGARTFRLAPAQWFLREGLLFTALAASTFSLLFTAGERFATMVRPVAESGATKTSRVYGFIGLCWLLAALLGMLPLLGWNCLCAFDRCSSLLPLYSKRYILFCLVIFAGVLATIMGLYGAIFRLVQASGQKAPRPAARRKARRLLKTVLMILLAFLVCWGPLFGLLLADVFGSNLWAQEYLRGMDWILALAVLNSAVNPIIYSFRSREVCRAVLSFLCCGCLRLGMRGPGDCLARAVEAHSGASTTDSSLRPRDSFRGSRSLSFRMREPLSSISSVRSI
Chain of Sphingosine 1-phosphate receptor 1 (P21453 whole entry): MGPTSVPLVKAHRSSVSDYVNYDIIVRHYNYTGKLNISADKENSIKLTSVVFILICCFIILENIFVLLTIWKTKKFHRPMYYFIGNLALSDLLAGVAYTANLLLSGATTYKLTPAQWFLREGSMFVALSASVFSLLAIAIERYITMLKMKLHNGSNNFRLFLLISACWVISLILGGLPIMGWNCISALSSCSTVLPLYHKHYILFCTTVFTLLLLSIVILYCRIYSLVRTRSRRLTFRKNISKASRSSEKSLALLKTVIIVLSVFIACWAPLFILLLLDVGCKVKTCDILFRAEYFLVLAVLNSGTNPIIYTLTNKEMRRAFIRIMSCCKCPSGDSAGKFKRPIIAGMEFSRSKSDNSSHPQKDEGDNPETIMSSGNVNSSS
Chain of Ion channel NompC (Q7T1G6 whole entry): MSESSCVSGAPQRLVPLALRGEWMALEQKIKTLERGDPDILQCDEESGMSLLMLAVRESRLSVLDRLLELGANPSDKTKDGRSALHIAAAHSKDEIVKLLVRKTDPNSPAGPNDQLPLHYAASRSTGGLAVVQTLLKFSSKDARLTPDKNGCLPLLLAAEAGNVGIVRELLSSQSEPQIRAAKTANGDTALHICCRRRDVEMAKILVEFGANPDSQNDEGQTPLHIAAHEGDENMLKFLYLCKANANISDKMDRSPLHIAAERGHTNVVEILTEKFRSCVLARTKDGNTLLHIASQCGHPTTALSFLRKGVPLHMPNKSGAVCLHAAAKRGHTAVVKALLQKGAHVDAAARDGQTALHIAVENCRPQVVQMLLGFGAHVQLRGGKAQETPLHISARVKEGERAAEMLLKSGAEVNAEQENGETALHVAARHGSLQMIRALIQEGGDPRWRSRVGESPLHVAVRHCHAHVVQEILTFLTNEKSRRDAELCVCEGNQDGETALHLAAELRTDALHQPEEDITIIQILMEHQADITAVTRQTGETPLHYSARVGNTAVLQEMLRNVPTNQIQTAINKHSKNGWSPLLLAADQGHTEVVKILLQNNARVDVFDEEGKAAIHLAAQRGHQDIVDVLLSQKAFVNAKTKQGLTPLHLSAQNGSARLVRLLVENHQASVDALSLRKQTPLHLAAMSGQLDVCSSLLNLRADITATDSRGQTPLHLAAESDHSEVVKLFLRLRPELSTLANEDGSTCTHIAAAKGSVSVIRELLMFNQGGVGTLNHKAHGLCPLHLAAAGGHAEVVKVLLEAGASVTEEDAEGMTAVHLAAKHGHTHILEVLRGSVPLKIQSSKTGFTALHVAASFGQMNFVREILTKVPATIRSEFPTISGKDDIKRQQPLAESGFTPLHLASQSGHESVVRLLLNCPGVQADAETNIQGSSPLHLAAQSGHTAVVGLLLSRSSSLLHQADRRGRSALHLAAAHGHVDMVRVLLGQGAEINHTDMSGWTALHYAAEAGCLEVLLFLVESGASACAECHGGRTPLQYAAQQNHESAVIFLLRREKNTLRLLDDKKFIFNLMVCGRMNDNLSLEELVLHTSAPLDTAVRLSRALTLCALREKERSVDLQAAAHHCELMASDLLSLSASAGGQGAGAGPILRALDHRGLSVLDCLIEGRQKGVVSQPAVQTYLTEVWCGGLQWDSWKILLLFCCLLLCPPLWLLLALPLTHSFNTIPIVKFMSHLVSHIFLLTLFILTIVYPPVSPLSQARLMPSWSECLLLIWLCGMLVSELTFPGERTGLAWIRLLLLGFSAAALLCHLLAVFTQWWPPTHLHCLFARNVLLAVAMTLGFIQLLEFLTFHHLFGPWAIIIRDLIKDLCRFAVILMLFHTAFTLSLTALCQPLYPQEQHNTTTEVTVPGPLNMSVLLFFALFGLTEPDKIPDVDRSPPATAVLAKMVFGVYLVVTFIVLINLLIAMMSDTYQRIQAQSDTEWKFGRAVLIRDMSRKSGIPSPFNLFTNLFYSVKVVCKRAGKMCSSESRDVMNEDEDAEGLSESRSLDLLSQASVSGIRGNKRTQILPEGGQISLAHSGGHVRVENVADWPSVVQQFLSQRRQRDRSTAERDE

EC50 (Ion channel NompC)	EC50 (Mucolipin-3)	SMILES	EC50 [1]	IC50 [2]	IC50 [3]	IC50 [4]	EC50 [5]
–	–	O=C(OCn1ncc(Br)c(Br)c1=O)c1c(F)cccc1F	1.78 µM (active)	0.888 µM (active)	7.96 µM (active)	88.8 µM (not active)	1.82 µM (active)
> 29.9 µM (not active)	14.7 µM (not active)	CCN(CC)C(=S)SCC(=O)NC12CC3CC(CC(C3)C1)C2	–	–	–	–	–

— ChEMBL document CHEMBL1201862, “PubChem BioAssay data set” (2004)
